In paper PMC5748751, “Study of Structure and Permeability Relationship of Flavonoids in Caco-2 Cells” (Nutrients, 2017):
Read-outs that look alike come from different tables or passages of the source. Marks after values point to notes of the source that are not given here.

Experiments:
Caco-2 cell monolayer [1] = assay: Cellular accumulation (CA) of flavonoids in Caco-2 cell monolayer; settings: for CA: both sides (CA A to B and CA B to A); for Ratioc (ratio of CA B to A to CA A to B): Caco-2 monolayer; for CA A to B: accumulated in cell monolayer after transport apical to basolateral; for CA A to B / CA B to A: 40 μM, 1 h, normalized to cellular protein, mean ± SD, n = 3; for CA B to A: accumulated in cell monolayer after transport basolateral to apical
Experimental: (§1) After the collection of samples from both AP and BL sides, the hanging insert was rinsed twice with ice-cold D-Hank’s buffer to stop further transport, and lysed with 0.1% Triton X-100 in D-Hank’s buffer then placed in an ultrasonic bath for 15 min. Cell lysates were collected and centrifuged at 7000× g for 10 min. Supernatants were analyzed by BCA kit (Dingguochangsheng Biotechnology, Beijing, China) for protein content. After protein content assay, supernatants were immediately frozen, lyophilized and preserved at −80 °C. The flavonoid concentration in lysis solution was determined by HPLC and normalized with cellular protein content.
(§2) To determine both the permeability and CA of flavonoids in Caco-2 cells, the lyophilized samples were dissolved in running 120 to 200 μL methanol, and centrifuged at 7000× g for 5 min. Aliquot of 20 μL of the supernatant solution was used for assay using Waters e2695 HPLC system (Milford, MA, USA) fitted with an Amethyst C18-H column (250 mm × 4.6 mm i.d., 5 μm; Sepax, Newark, DE, USA). The mobile phase consisted of A (0.01 M phosphoric acid (H3PO4))/B (acetonitrile) with 1.0 mL/min flow rate. […] Peak area measurement was used to obtain standard calibration curves to determine concentration of each flavonoid.

[2] = Recovery (mass balance) of flavonoids during Caco-2 transport assay; format: in vitro ADME; settings: human, Caco-2, mass balance, both sides of insert plus cells
Experimental: The recovery of the flavonoid glycosides during the transport assays was determined by mass balance and was measured as total amount of the flavonoids on both sides of the insert and in the Caco-2 cells.

[3] = Permeability (bidirectional transport) of flavonoids in Caco-2 cell monolayers; format: in vitro ADME; settings: human; for Papp A→B at 60 min, 40 μM: Caco-2, apical to basolateral; for Papp A→B at 60 min, 40 μM / Papp B→A at 60 min, 40 μM: incubation 60 min, 37 °C, D-Hank's pH 7.4, mean ± SD, n = 3–6; for Papp B→A at 60 min, 40 μM: Caco-2, basolateral to apical; for Papp at 1 h, 40 μM: Caco-2 monolayer; for efflux ratio at 60 min, 40 μM: pH 7.4, Caco-2 monolayer, read-out: Ratiop (ratio of Papp B to A to Papp A to B)
Experimental: Caco-2 cells were cultured in MEM supplemented with 10% FBS, 1% NEAA, penicillin (100 U/mL) and streptomycin (100 μg/mL) in an atmosphere of 5% CO2 and 90% relative humidity at 37 °C. All cells used in this study were between passages 35 and 45 [16].
Caco-2 cells were seeded at a density of about 8 × 10^4 cells/cm^2 on a 12 wells Millicell hanging insert and left to grow for 19–21 days to reach confluence. Culture medium was replaced every other day for 14 days and daily thereafter. The integrity and transport ability of the Caco-2 cells monolayer were examined by measuring the trans-epithelial electrical resistance (TEER) with a Millicell voltammeter (Millicell ERS-2, Merck Millipore, Billerica, MA, USA) and running standard assays using Lucifer yellow CH as paracellular flux marker. […] Differentiation of Caco-2 cells was checked after 4 and 12 days by determining the activity of alkaline phosphatase with an assay kit (Nanjing Jiancheng Bioengineering Institute, Nanjing, China) and after 21 days transmission electron microscopy was performed on Caco-2 monolayer to evaluate differentiation.
The Caco-2 cell monolayer was washed with D-Hank’s buffer (pH 7.4). Then, the flavonoid (40 μM) was added to either the apical (AP, 0.4 mL) or basolateral (BL, 1.95 mL) side, while the receiving chamber contained the corresponding volume of D-Hank’s buffer and incubated for 1 h at 37 °C. Solutions from both AP and BL sides of Caco-2 cell monolayer were collected and immediately frozen, lyophilized and preserved at −80 °C for high performance liquid chromatography (HPLC) analysis. Papp was calculated from Equation (1), where ΔQ/Δt is the rate of the flavonoid on the accepting chamber (μM/s), A is the surface area of the hanging insert (cm^2) and C0 is the initial concentration of tested flavonoid in donating chamber (μM/mL).(1) Papp=ΔQ/Δt/AC0

[4] = Cell viability (MTT) assay of flavonoids in Caco-2 cells; format: cell-based; settings: human
Experimental: The cytotoxicity of flavonoids and colchicine was evaluated by MTT assay. The cells were grown in 96-well plates at a density of 1 × 10^4 cells/well. After incubation with 40 μM flavonoid for 24 h, the cells were further incubated with an MTT solution (0.5 mg/mL) for 4 h at 37 °C. Finally, after removal of the supernatant, 150 μL dimethyl sulphoxide was added to each well to dissolve crystallized MTT. Absorbance was read at 570 nm with a multiskan spectrum microplate reader (Thermo Labsystems, Waltham, MA, USA). The percentage cell viability relative to that of the control cells was used as the cytotoxicity measure.

[5] = Stability of flavonoids in D-Hank's buffer relative to methanol; format: physicochemical; settings: 20 μM flavonoid, HPLC peak area in D-Hank's / peak area in methanol × 100%
Experimental: The relative stability was expressed as the relative appearance of flavonoids in different solvents. Each flavonoid (20 μM) was dissolved in two different solvents, D-Hank’s and methanol. […] Relative concentration in D-Hank’s (%) = Peak area in D-Hank’s/Peak area in methanol × 100%(3)

Caco-2 cell monolayer [6] = settings: human, Caco-2, 1 h, 40 μM, pH 7.4
Experimental: as §1, §2

[7] = transport apical to basolateral, read-out: Recovery (A to B, %)
[8] = transport basolateral to apical, read-out: Recovery (B to A, %)
[9] = pH 7.4, direction not specified (bilateral)
[10] = Caco-2, pH 7.4, as stated in text, direction not specified (bilateral)

Compound | Ratioc (ratio of CA B to A to CA A to B) (Caco-2 cell monolayer [1]) | CA A to B (Caco-2 cell monolayer [1]) | CA B to A (Caco-2 cell monolayer [1]) | efflux ratio at 60 min, 40 μM [3] | Relative concentration of flavonoids, D-Hank's/methanol (%) ([5]; listed as chrysin) | CA (Caco-2 cell monolayer [6]) | CA (Caco-2 cell monolayer [1]) | recovery [2, 7] | recovery [2, 8] | Papp A→B at 60 min, 40 μM [3] | Papp B→A at 60 min, 40 μM [3] | Papp at 1 h, 40 μM [3, 9] | viability at 24 h, 40 μM [4] | Relative concentration of flavonoids, D-Hank's/methanol (%) [5] | Papp at 1 h, 40 μM [3, 10]
C[C@@H]1O[C@@H](Oc2c(-c3ccc(O)c(O)c3)oc3cc(O)cc(O)c3c2=O)[C@H](O)[C@H](O)[C@H]1O [Compound 16, Quercitrin] | – | – | – | – | – | – | not detected | 90.7 ± 8.85% | 76.8 ± 9.36% | 4.24 ± 1.25 ×10⁻⁶ cm/s | 5.96 ± 1.2 ×10⁻⁶ cm/s | < 6 ×10⁻⁶ cm/s | 98.4 ± 3.86% | 116.67% | –
O=c1c(-c2ccc(O)cc2)coc2c([C@@H]3O[C@H](CO)[C@@H](O)[C@H](O)[C@H]3O)c(O)ccc12 [Compound 24, Puerarin] | – | – | – | – | – | – | not detected | 87.4 ± 3.31% | 85.25 ± 0.6% | 2.25 ± 0.96 ×10⁻⁶ cm/s | 2.7 ± 0.41 ×10⁻⁶ cm/s | – | 105 ± 6.13% | 30.31% | < 6 ×10⁻⁶ cm/s
C[C@@H]1O[C@@H](OC[C@H]2O[C@@H](Oc3c(-c4ccc(O)c(O)c4)oc4cc(O)cc(O)c4c3=O)[C@H](O)[C@@H](O)[C@@H]2O)[C@H](O)[C@H](O)[C@H]1O [Compound 17, Rutin] | – | – | – | – | – | – | not detected | 98.2 ± 4.74% | 97 ± 1.67% | 4.04 ± 0.07 ×10⁻⁶ cm/s | 4.28 ± 0.44 ×10⁻⁶ cm/s | – | 106 ± 5.48% | 66.82% | < 6 ×10⁻⁶ cm/s
O=c1cc(-c2ccc(O)cc2)oc2cc(O)cc(O)c12 [Compound 6, Apigenin] | 1.72 | 4.415 ± 0.467 µmol/g | 7.610 ± 0.694 ^b μmol/g | 0.99 | – | – | – | – | – | 17.1 ± 1.72 ×10⁻⁶ cm/s | 16.9 ± 1.02 ×10⁻⁶ cm/s | – | 101 ± 4.56% | 41.76% | –
O=c1c(O)c(-c2cc(O)c(O)c(O)c2)oc2cc(O)cc(O)c12 [Compound 14, Myricetin] | – | – | – | 1.5 | – | – | not detected | – | – | 0.29 ± 0.01 ×10⁻⁶ cm/s | 0.44 ± 0.01 ×10⁻⁶ cm/s | < 0.5 ×10⁻⁶ cm/s | 101 ± 3.15% | lower than 40% | –

More lines, main results first:

Ratioc (ratio of CA B to A to CA A to B) (Caco-2 cell monolayer [1]) | CA A to B (Caco-2 cell monolayer [1]) | CA B to A (Caco-2 cell monolayer [1]) | efflux ratio at 60 min, 40 μM [3] | Relative concentration of flavonoids, D-Hank's/methanol (%) ([5]; listed as chrysin) | CA (Caco-2 cell monolayer [6]) | Compound | CA (Caco-2 cell monolayer [1]) | recovery [2, 7] | recovery [2, 8] | Papp A→B at 60 min, 40 μM [3] | Papp B→A at 60 min, 40 μM [3] | Papp at 1 h, 40 μM [3, 9] | viability at 24 h, 40 μM [4] | Relative concentration of flavonoids, D-Hank's/methanol (%) [5] | Papp at 1 h, 40 μM [3, 10]
2.26 | 3.902 ± 0.251 µmol/g | 8.828 ± 0.213 ^b μmol/g | 1.24 | less than 50% | – | O=c1cc(-c2ccccc2)oc2cc(O)cc(O)c12 [Compound 7, Chrysin] | – | – | – | 6.78 ± 0.12 ×10⁻⁶ cm/s | 8.41 ± 0.62 ×10⁻⁶ cm/s | – | 103 ± 4.94% | 47.63% | –
2.29 | 1.935 ± 0.305 µmol/g | 4.436 ± 0.299 ^b μmol/g | 1.1 | – | – | O=C1C[C@@H](c2ccc(O)cc2)Oc2cc(O)cc(O)c21 [Compound 19, Naringenin] | < 5 µmol/g | – | – | 32.1 ± 2.98 ×10⁻⁶ cm/s | 35.3 ± 1.16 ×10⁻⁶ cm/s | – | 95.6 ± 3.47% | 113.93% | > 30 ×10⁻⁶ cm/s
– | 0.635 ± 0.146 µmol/g | 1.234 ± 0.249 ^a μmol/g | – | – | < 5 µmol/g | O=C1C[C@@H](c2ccc(O)cc2)Oc2cc(O)ccc21 [Compound 21, Liquiritigenin] | – | – | – | 31 ± 0.8 ×10⁻⁶ cm/s | 37 ± 1.97 ×10⁻⁶ cm/s | – | 101 ± 4.27% | – | > 30 ×10⁻⁶ cm/s
2.23 | 3.876 ± 0.741 µmol/g | 8.639 ± 1.275 ^b μmol/g | 2.12 | – | – | O=c1cc(-c2ccc(O)c(O)c2)oc2cc(O)cc(O)c12 [Compound 5, Luteolin] | – | – | – | 10.1 ± 7.33 ×10⁻⁶ cm/s | 21.4 ± 2.12 ×10⁻⁶ cm/s | – | 101 ± 4.19% | 87.51% | –
1.65 | 1.932 ± 0.051 µmol/g | 3.183 ± 0.504 ^a μmol/g | 0.97 | – | – | O=c1cc(-c2ccccc2)oc2ccccc12 [Compound 1, Flavone] | – | – | – | 22.4 ± 1.37 ×10⁻⁶ cm/s | 21.7 ± 1.21 ×10⁻⁶ cm/s | – | 96.3 ± 9.79% | 60.10% | –
